Measured values published in article PMC10927086, “Effects of structurally distinct human HDAC6 and HDAC6/HDAC8 inhibitors against S. mansoni larval and adult worm stages” (PLOS Neglected Tropical Diseases, 2024).

What was measured:
[1] = tested on: Caco-2 cell; parameters: method as in earlier work; conditions: QikProp; >500 great; ref [25]; cited from earlier work
[2] = tested on: hHDAC8; conditions: recombinant enzyme, previously reported; ref [25]; cited from earlier work
[3] = tested on: MDCK cell; parameters: method as in earlier work; conditions: QikProp; >500 great; ref [25]; cited from earlier work
[4] = tested on: HERG K+ channels; parameters: method as in earlier work; conditions: QikProp, log value; recommended below -5; ref [25]; cited from earlier work
[5] = tested on: S. mansoni newly transformed schistosoma (NTS); experiment: ATP-based luminescence (CellTiter-GLO) viability assay on NTS; format: cell-based
Description: Fig 3 Schistosome viability assays. Panel A: Representative dose-response curves of the inhibitors on NTS. The y-axis indicates the percentage of viability normalized against DMSO (100%) and gambogic acid 10 μM (0%). […] Panel B: dose-response curve of the inhibitors on adult schistosome worm pairs. DMSO (vehicle) was used as negative control (100% viability), the indicated compounds were assayed at 5 (full triangle) 10 (inverted full triangle), 20 (full square) and 50 μM (full circle). Data are expressed as a % severity score (viability) relative to DMSO. Each point represents the average ± standard deviation of three independent experiments.

[6] = tested on: histone proteins of S. mansoni adult worm pairs; experiment: Western blot, histone acetylation (anti-acetylated lysine) in adult worm pairs; format: cell-based, Schistosoma mansoni; conditions: 48 h and 72 h, partially lethal and sub-lethal doses
Description: Ten adult pairs were treated with selected HDAC inhibitors for 48 h or 72 h at partially lethal and sublethal concentrations. Compound concentrations were selected based on the viability curve, Trichostatin A (TSA), a pan-HDAC inhibitor, and NF2503 a SmHDAC8 inhibitor chemically characterized by the presence of a hydroxamate-based MBG (metal binding group) coupled to a tricyclic thieno[3,2-b]indole core as capping group, previously described were used as positive controls in the experiments; DMSO (vehicle) was the negative control. Parasites were processed as previously described and samples were analyzed by 15% SDS-PAGE, and immunoblotting was performed using α-tubulin DM1A (1:5000), α-acetylated-lysine (1:4000) and α-acetylated tubulin (1:3000) antibodies. A Chemidoc XRS Bio-Rad with a chemiluminescent camera and Bio-Rad ImageLab 4.0 software were used for the acquisition and analysis of images. Each Western blot analysis was calibrated by Ponceau staining.
TSA, a known pan- class I and class II HDAC -inhibitor, and NF2503, a HDAC inhibitor previously shown to impact histone acetylation in adult worm pairs were used as positive controls.
Fig 6 Effects of selected compounds on histones and tubulin acetylation. […]

[7] = MTT cytotoxicity assay on L929 fibroblasts; format: cell-based, murine; conditions: mouse, L929 (NCTC clone 929) fibroblast cells, compounds 100-0.78 μM, GA 10-0.078 μM, 2 independent experiments
Description: The NCTC clone 929 (L-929) murine fibroblast isolated from subcutaneous connective tissue (ATCC-CCL-1) were cultured in Dulbecco’s Modified Eagle Medium (DMEM) supplemented with 10 mM Hepes (pH 6.98–7.30), 1 mM l-glutamine, 100 U/ml of penicillin/streptomycin (BioWhittaker, Lonza, EuroClone SpA), and heat-inactivated 10% FBS. All cells were cultured at 37°C in a 5% CO2 humidified incubator.
The MTT method was employed as previously described to determine the viability of fibroblast cell lines. Briefly, cells seeded into 96-well plates at a density of 20,000 cells/well after overnight incubation, were exposed to selected compounds at the indicated concentrations for 24–72 h. Next they were gently washed, incubated with MTT (bromuro di 3-(4,5-dimetiltiazol-2-il)-2,5-diphenyltetrazolium) for 4 h, and processed for color detection with DMSO. The resulting purple solution was spectrophotometrically measured at 570 nm using a Varioskan Lux instrument and Skanit software (Thermo Fisher Scientific).
The optical density values for both assays were expressed as a percentage of cell survival and normalized with the value of cells treated with vehicle (DMSO), and the data were analyzed using GraphPad Prism v9.5.1 software (San Diego, CA, USA).
The cytotoxicity of the hit compounds was assessed in two independent experiments on murine L929 and human BJ fibroblasts at 24 h by MTT assays. Vehicle (DMSO) and Gambogic acid (GA) were used as negative and positive control respectively. The compounds show a safe profile on both cell lines (S2 Table).
The IC50(μM) shown was calculated by dose-response curves of the compounds on murine L929 and human BJ fibroblast cells. […] The data are representative of 2 independent experiments. Gambogic acid (GA) and vehicle (DMSO) were used as positive and negative controls respectively. (DOCX)

[8] = target: T1, SmHDAC8 (Schistosoma mansoni, UniProt A5H660); experiment: Recombinant SmHDAC8 inhibition assay (Fluor de Lys); format: biochemical; conditions: Fluor-de-Lys substrate 50 μM, inhibitor 25-0.04 μM, average of three experiments ± SD
T1 construct: made in house; host or cells: E. coli
T1 sequence (A5H660 1-440): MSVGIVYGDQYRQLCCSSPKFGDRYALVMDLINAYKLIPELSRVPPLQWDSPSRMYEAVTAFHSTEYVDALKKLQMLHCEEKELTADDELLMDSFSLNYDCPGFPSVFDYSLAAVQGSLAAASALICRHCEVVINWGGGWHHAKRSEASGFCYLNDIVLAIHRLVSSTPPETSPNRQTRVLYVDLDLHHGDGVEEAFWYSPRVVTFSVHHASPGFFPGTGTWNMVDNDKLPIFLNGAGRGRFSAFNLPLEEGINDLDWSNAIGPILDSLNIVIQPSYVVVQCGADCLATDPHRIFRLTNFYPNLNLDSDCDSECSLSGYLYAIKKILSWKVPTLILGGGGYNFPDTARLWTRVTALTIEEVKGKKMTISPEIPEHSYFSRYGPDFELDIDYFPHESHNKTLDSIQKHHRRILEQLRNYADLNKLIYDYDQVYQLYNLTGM
Description: SmHDAC8 protein was produced and purified by a method previously described by us. Inhibition assays of SmHDAC8 were performed as already described in previous publications. Briefly, the commercial Fluor de Lys kit (BML-KI178) of Enzo Life Science was used for testing the residual activity of the recombinant enzyme upon preincubation with each of the selected compounds. First the enzyme was preincubated with the selected compounds 15 min before substrate addition to the mixture. The Fluor de Lys substrate was used at 50 μM. Then, compounds, substrate, and enzyme were incubated together, and the reaction was allowed to proceed for 1 h at 30°C; subsequently, 2 μM TSA within 50 μL of 1× Developer II was added, and the mixture was further incubated for 1 h at 30°C to quench the reaction. Fluorescence was measured in a plate reader (Varioskan Lux, Thermo Fisher Scientific) with excitation at λ = 370 nm and emission at λ = 450 nm.

Compound | QPPCaco predicted apparent Caco-2 cell permeability [1] | IC50 [2] | QPPMDCK predicted apparent MDCK cell permeability [3] | QPlogHERG predicted IC50 values for blockage of HERG K+ channels [4] | Normalization: NTS viability normalized against DMSO (100%) and GA (0%) ([5]; log conc. (µM) 1.4, 72 h, single wells) | histone acetylation vs vehicle (DMSO) [6] | IC50 at 24 h [7] | IC50 [8] | LD50 on NTS, average +/- SD ([5]; 72 h, 0.7-100 μM, three experiments)
CCN(CC)Cc1ccc(Cn2c(=O)c(OCc3ccc(C(=O)NO)cc3)c(-c3cccnc3)c3ccccc32)cc1 [NF2838] | 5.607 ×10⁻⁶ cm/s | 500 ± 200 nM | 2.431 ×10⁻⁶ cm/s | -7.83 | 107.9% | more strongly impact histone acetylation | 64000 to 100000 nM | 400 ± 30 nM | –
Cn1c(=O)c(OCc2ccc(C(=O)NO)cc2)c(C2CCCCC2)c2ccccc21 [NF2836] | 26.454 ×10⁻⁶ cm/s | 1600 ± 300 nM | 11.753 ×10⁻⁶ cm/s | -5.45 | – | only slightly impacts histone acetylation | > 100000 nM | 2300 ± 800 nM | 31.2 ± 11.3 µM
